Assay results taken from patent US10215746B2, “Methods for diagnosis and intervention of hepatic disorders” (The Regents of the University of Colorado, priority 2005, dated 2019).
Read-outs that look alike come from different tables or passages of the source.

Assays:
[1] = Dissolution of cholate for oral solution; type: physicochemical; conditions: aqueous sodium bicarbonate
[2] = in vivo; cited from earlier work
[3] = cited from earlier work
[4] = cited from earlier work; remark: listed apart in the source
[5] = test system: chronic hepatitis C; conditions: 90 μg/week vs no treatment; cited from earlier work
[6] = single intravenous injection; cited from earlier work

With `C[C@H](CCC(=O)O)[C@H]1CC[C@H]2[C@@H]3[C@H](O)C[C@@H]4C[C@H](O)CC[C@]4(C)[C@H]3C[C@H](O)[C@]12C` [Cholate, cholic acid] the dissolution [1] was “easily dissolved”.
For `Cc1cc(=O)n(-c2ccccc2)n1C` [antipyrine], the “drug appearing unchanged in the urine” value [2] is given as 5%.
In the case of `CCN(CC)CC(=O)Nc1c(C)cccc1C` [Lidocaine], the “side effects (sensory symptoms)” value ([3]; lower dose (less than 1 mg/kg such as 0.5 mg/kg) iv) is listed as 30%, the “side effects (sensory symptoms)” value ([3]; standard dose 1 mg/kg iv over 2 minutes) is listed as 53% and the first pass elimination ([4]; in vivo) is listed as “up to 81%”.
In the case of peginterferon alfa-2a [PegIFN], the “effect on clinical or histological outcomes” value [5] is given as “did not affect clinical or histological outcomes”.
In the case of `CC1(C)C(/C=C/C=C/C=C/C=C2\N(CCCCS(=O)(=O)O)c3ccc4ccccc4c3C2(C)C)=[N+](CCCCS(=O)(=O)[O-])c2ccc3ccccc3c21` [Indocyanine green], the first-pass hepatic extraction ([4]; administered intravenously) is listed as “up to 80%”.
In the case of `O=C[C@H](O)[C@@H](O)[C@@H](O)[C@H](O)CO` [galactose], the “share of total plasma elimination due to distribution and metabolism outside the liver” value [6] is listed as 40% and the “share of total plasma elimination due to hepatic clearance” value [6] is listed as “Approximately 60%”.
